Assay results from ChEMBL document CHEMBL1201862, “PubChem BioAssay data set” (2004).
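Compound exposure: 48 hours, 5 concentrations, 96-well plates. GI50 = concentration required for 50% inhibition of growth.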 Active and inactive are the calls of the source. No stated cut-off is given here; in the data, active = GI50 up to about 1.1 µM and inactive = higher.

What was measured:
Test in all cases: inhibition of tumour cell growth, NCI panel, 48 h
LXFL 529 = test system: LXFL 529
786-0 = test system: 786-0
HL-60 = test system: HL-60
TK-10 = test system: TK-10
HCT-15 = test system: HCT-15
OVCAR-5 = test system: OVCAR-5
MOLT-4 = test system: MOLT-4
NCI-H522 = test system: NCI-H522
SK-OV-3 = test system: SK-OV-3
U-251 = test system: U-251
NCI-H23 = test system: NCI-H23
SK-MEL-5 = test system: SK-MEL-5
OVCAR-4 = test system: OVCAR-4
LOX IMVI = test system: LOX IMVI
RPMI-8226 = test system: RPMI-8226
UACC-257 = test system: UACC-257
SR = test system: SR
MDA-MB-435 = test system: MDA-MB-435
MCF7 = test system: MCF7
T47D = test system: T47D

Row | SMILES | GI50 (LXFL 529) | GI50 (786-0) | GI50 (HL-60) | GI50 (TK-10) | GI50 (HCT-15) [µM] | GI50 (OVCAR-5) | GI50 (MOLT-4) | GI50 (NCI-H522) | GI50 (SK-OV-3) | GI50 (U-251) | GI50 (NCI-H23) | GI50 (SK-MEL-5) | GI50 (OVCAR-4) | GI50 (LOX IMVI) | GI50 (RPMI-8226) | GI50 (UACC-257) | GI50 (SR) | GI50 (MDA-MB-435) | GI50 (MCF7) | GI50 (T47D)
1 | COc1ccc2n[se]nc2c1 | > 100 µM (inactive) | 48.3 µM (inactive) | > 100 µM (inactive) | 70.6 µM (inactive) | > 100 | > 100 µM (inactive) | > 100 µM (inactive) | > 100 µM (inactive) | 46.3 µM (inactive) | > 100 µM (inactive) | > 100 µM (inactive) | 50.1 µM (inactive) | > 100 µM (inactive) | > 100 µM (inactive) | > 100 µM (inactive) | 54.6 µM (inactive) |  |  |  | 
2 | N#CCN1CCOCCOCCN(CC#N)CCOCCOCC1 | > 100 µM (inactive) | > 100 µM (inactive) | > 100 µM (inactive) | > 100 µM (inactive) | > 100 | > 100 µM (inactive) | > 100 µM (inactive) |  |  |  | > 100 µM (inactive) | > 100 µM (inactive) | > 100 µM (inactive) | > 100 µM (inactive) | > 100 µM (inactive) | > 100 µM (inactive) | > 100 µM (inactive) |  |  | 
3 | O=C(O)CN(c1ccccc1)S(=O)(=O)c1ccccc1[N+](=O)[O-] | > 100 µM (inactive) | > 100 µM (inactive) | > 100 µM (inactive) | > 100 µM (inactive) | > 100 | > 100 µM (inactive) | > 100 µM (inactive) | > 100 µM (inactive) | > 100 µM (inactive) | > 100 µM (inactive) | > 100 µM (inactive) | > 100 µM (inactive) | > 100 µM (inactive) | > 100 µM (inactive) | > 100 µM (inactive) | > 100 µM (inactive) |  |  |  | 
4 | CC(C)N1CN(C(C(=O)N[C@@H]2C(=O)N3C2SC(C)(C)C3C(=O)O)c2ccccc2)CSC1=S (stereo partly specified) | > 100 µM (inactive) | > 100 µM (inactive) | > 100 µM (inactive) | > 100 µM (inactive) | 22.1 | > 100 µM (inactive) | > 100 µM (inactive) | 27.8 µM (inactive) | > 100 µM (inactive) | > 100 µM (inactive) | > 100 µM (inactive) | > 100 µM (inactive) | > 100 µM (inactive) | 83.9 µM (inactive) | 69.5 µM (inactive) | > 100 µM (inactive) |  |  |  | 
5 | O=C(CSc1nnc(Cc2ccccc2)o1)Nc1ccc(Cl)cc1 | 86.3 µM (inactive) | > 100 µM (inactive) | > 100 µM (inactive) | > 100 µM (inactive) | > 100 | 70.3 µM (inactive) | > 100 µM (inactive) | 75.3 µM (inactive) | > 100 µM (inactive) | > 100 µM (inactive) | 52.2 µM (inactive) | 57.8 µM (inactive) | 58.7 µM (inactive) | > 100 µM (inactive) | > 100 µM (inactive) | > 100 µM (inactive) |  |  |  | 
6 | COC(=O)C(/C(=N\O)C(=O)Nc1ccc(Br)cc1)c1nc2ccccc2nc1O (stereo unspecified) | 28.6 µM (inactive) | 31 µM (inactive) | 21.8 µM (inactive) | > 10 µM (inactive) | 64.7 | > 100 µM (inactive) | 26.1 µM (inactive) | 17.1 µM (inactive) | > 100 µM (inactive) | 34 µM (inactive) | > 100 µM (inactive) | 28.6 µM (inactive) | 64.7 µM (inactive) | 22.7 µM (inactive) | 26.9 µM (inactive) | > 100 µM (inactive) | 18.2 µM (inactive) |  |  | 
7 | C#CC1/C(=C\C(=O)OC)CCCC1O (stereo unspecified) | > 100 µM (inactive) | > 100 µM (inactive) | > 100 µM (inactive) | > 100 µM (inactive) | > 100 | > 100 µM (inactive) | > 100 µM (inactive) | > 100 µM (inactive) | > 100 µM (inactive) | > 100 µM (inactive) | > 100 µM (inactive) | > 100 µM (inactive) | > 100 µM (inactive) |  | > 100 µM (inactive) | > 100 µM (inactive) | > 100 µM (inactive) |  |  | 
8 | CN1CCN(CN2C(=O)C3C4C=CC(C3C2=O)C2C3C(=O)N(CN5CCN(C)CC5)C(=O)C3C42)CC1 (stereo unspecified) | 19.9 µM (inactive) | 18.2 µM (inactive) |  | 38 µM (inactive) | 16.9 | 30.8 µM (inactive) | 22.2 µM (inactive) |  |  | 20.8 µM (inactive) | 21.2 µM (inactive) | 17 µM (inactive) | 21.3 µM (inactive) | 17.9 µM (inactive) | 24.7 µM (inactive) |  | 16.4 µM (inactive) |  |  | 
9 | C[P+](C)(CC(F)(F)F)c1ccccc1 | > 100 µM (inactive) | > 100 µM (inactive) | > 100 µM (inactive) | > 100 µM (inactive) | > 100 | > 100 µM (inactive) | > 100 µM (inactive) | > 100 µM (inactive) | > 100 µM (inactive) | > 100 µM (inactive) | > 100 µM (inactive) | > 100 µM (inactive) |  | > 100 µM (inactive) | > 100 µM (inactive) | > 100 µM (inactive) | > 100 µM (inactive) |  |  | 
10 | COc1ccc(NC(=O)c2cc(OC)c(OC)c(OC)c2)cc1 | 51.8 µM (inactive) | > 81.8 µM (inactive) | 22.2 µM (inactive) | > 100 µM (inactive) | 33.4 | > 100 µM (inactive) | 34.3 µM (inactive) | 30.2 µM (inactive) | 49.8 µM (inactive) | 39.6 µM (inactive) | 40.7 µM (inactive) | 28.2 µM (inactive) | > 100 µM (inactive) | 60.3 µM (inactive) | 39.5 µM (inactive) | 42.8 µM (inactive) |  |  |  | 
11 | COc1cc(OC)c2c(=O)c3c([N+](=O)[O-])cccc3n(C)c2c1 | > 100 µM (inactive) | > 100 µM (inactive) | > 100 µM (inactive) | > 100 µM (inactive) | > 100 | > 100 µM (inactive) | > 100 µM (inactive) | > 100 µM (inactive) | > 100 µM (inactive) | 94.8 µM (inactive) | > 100 µM (inactive) | > 100 µM (inactive) | > 100 µM (inactive) | > 100 µM (inactive) | > 100 µM (inactive) | > 100 µM (inactive) | > 100 µM (inactive) |  |  | 
12 | COc1ccc(/C=C2\CCC(C)(CN(C)C)C2=O)cc1OC (stereo unspecified) | > 100 µM (inactive) | > 100 µM (inactive) |  | > 100 µM (inactive) | > 100 | > 100 µM (inactive) | > 100 µM (inactive) | > 100 µM (inactive) |  | > 100 µM (inactive) | > 100 µM (inactive) | > 100 µM (inactive) | > 100 µM (inactive) | > 100 µM (inactive) | > 100 µM (inactive) | > 100 µM (inactive) |  |  |  | 
13 | O=[N+]([O-])C(/C=N/Nc1ccccc1)/C=N/Nc1ccccc1 | > 100 µM (inactive) | > 100 µM (inactive) | > 100 µM (inactive) | > 100 µM (inactive) | > 100 | > 100 µM (inactive) | > 100 µM (inactive) | > 100 µM (inactive) | > 100 µM (inactive) | > 100 µM (inactive) | > 100 µM (inactive) | > 100 µM (inactive) | > 100 µM (inactive) | > 100 µM (inactive) |  | > 100 µM (inactive) |  |  |  | 
14 | CNC(=O)CN(CC(=O)O)C(=O)NC | > 100 µM (inactive) | > 100 µM (inactive) | > 100 µM (inactive) | > 100 µM (inactive) | > 100 | > 100 µM (inactive) | > 100 µM (inactive) | > 100 µM (inactive) | > 100 µM (inactive) | > 100 µM (inactive) | > 100 µM (inactive) | > 100 µM (inactive) | > 100 µM (inactive) | > 100 µM (inactive) | > 100 µM (inactive) | > 100 µM (inactive) | > 100 µM (inactive) |  |  | 
15 | O=C(/C=C/c1ccc(O)c(O)c1O)OCCc1ccccc1 |  | 16 µM (inactive) | 22 µM (inactive) | 83.2 µM (inactive) | 23.4 | 41.9 µM (inactive) | 23.6 µM (inactive) | 27.9 µM (inactive) | 90.8 µM (inactive) | 26.1 µM (inactive) | 22.9 µM (inactive) | > 100 µM (inactive) | 15.9 µM (inactive) | 15.2 µM (inactive) | 21.2 µM (inactive) | > 100 µM (inactive) | 15.8 µM (inactive) | 17.5 µM (inactive) | 14.5 µM (inactive) | 82.2 µM (inactive)
16 | COc1c(OC/C=C(\C)CCC=C(C)C)ccc2ccc(=O)oc12 [COLLININ] |  | > 100 µM (inactive) | 43.4 µM (inactive) | > 100 µM (inactive) | 64.9 | > 100 µM (inactive) | 56.5 µM (inactive) | > 100 µM (inactive) | > 100 µM (inactive) | > 100 µM (inactive) | > 100 µM (inactive) | 48.1 µM (inactive) | 51.8 µM (inactive) | > 100 µM (inactive) | > 100 µM (inactive) | > 100 µM (inactive) | 61.5 µM (inactive) | > 100 µM (inactive) | > 100 µM (inactive) | 62.5 µM (inactive)
17 | CC(Oc1ccc(Cl)cc1Cl)C(=O)NN1C(=O)CC(=O)N(c2ccccc2)C1=S (stereo unspecified) |  | 60.3 µM (inactive) | 0.527 µM (active) | > 100 µM (inactive) | 38.2 | > 100 µM (inactive) | 46.3 µM (inactive) | 31.5 µM (inactive) | > 100 µM (inactive) | 41.9 µM (inactive) | 37.2 µM (inactive) | 47.4 µM (inactive) | 45.8 µM (inactive) | 55 µM (inactive) | 30.7 µM (inactive) | 74.6 µM (inactive) | 4.67 µM (inactive) | 41.9 µM (inactive) | 35.5 µM (inactive) | 43.2 µM (inactive)
